In patent US20250127165A1, “USE OF 2-AMINO-3-PHENYLBUTYRIC ACID OR 2,6-DIAMINO-3-METHYLHEXANOIC ACID AS PLANT IMMUNE RESISTANCE INDUCER” (NANJING TIANNONG BIOTECHNOLOGY CO., LTD., priority 2021, published 2025):

Tests used:
[1] = test system: tomato spotted wilt virus; experiment: Induced resistance of tobacco to tomato spotted wilt virus infection; type: in vivo, Nicotiana benthamiana; details: for viral protein content: leaves 3 days after inoculation, Western blot grey scale
Experimental: Tomato spotted wilt virus was obtained from Yunnan Province, China. The initial virus source was stored in a refrigerator at −80° C., and inoculated on the leaves of Nicotiana benthamiana using friction inoculation method to activate the virus. The virus plasmids were extracted and transformed with competent cells of Escherichia coli. The competent cells were coated on a resistant plate for culture. Single colonies were picked for PCR screening, and positive colonies were selected for sequencing and subsequent plasmid extraction. The plasmids with normal sequencing results were added to competent cells of Agrobacterium sp, and Agrobacterium was transformated by electroporation. A solution of the transformed Agrobacterium was coated on the corresponding resistant screening plate, and cultured at 28° C. (+1° C.) for 48 h. Single colonies of the Agrobacterium on transformation plate were picked, placed in 5 mL of LB medium with the corresponding resistance, and cultured overnight at 28° C., 180 rpm. The bacterial cells were collected by centrifugation at 6,000 rpm for 2 min, suspended with a treatment solution (10 mM MgCl2, 10 mM MES, and 10 μM Acetosyringone) until the OD600 value of the suspension was 0.5. The suspension was treated at 28° C. in the dark for 3 hours for later use. 2-amino-3-phenylbutyric acid was dissolved in distilled water and then gradiently diluted with distilled water into solutions of 0 nM, 0.1 nM, 1 nM, and 10 nM. Nicotiana benthamiana seeds were planted in small pots and incubated at 22° C. (+1° C.), 12 h/12 h light for 5 weeks. Healthy tobacco plants (preferably with 8-10 leaves) were selected and treated with the 2-amino-3-phenylbutyric acid solutions of the above concentrations by spraying on the stems and leaves, and repeated the treatment at 24-hour intervals for a total of two treatments. After 24 hours, a uniform concentration of Agrobacterium solution was extracted with a 1 mL syringe, the injection port of the syringe was pressed directly on the small hole on the back of the tobacco leaf, and the bacterial solution was slowly pushed in order to infiltrate soak the entire leaf. The infiltrated tobacco was moved to an environment of 24° C. (+1° C.), 12 h/12 h light for incubation. After 3 days, microscopic observation was performed and recorded. At the same time, the samples were taken, and the gray scale of protein bands was analyzed by Western blot combined with Image J software to determine the relative protein content of virus in leaves. After 15 days, the disease of tobacco leaves was observed and the disease index was recorded with reference to “grade and investigation method of tobacco diseases and insect pests” (GB/T 23222-2008) with the following formulas: […]
Grading standard of Tomato spotted wilt virus disease (grading and investigation were conducted per plant): • Grade 0: the whole plant is disease free; • Grade 1: heart leaves have clear veins or slightly mosaic, and there is no obvious dwarfing of diseased plants; • Grade 3: one-third of the leaves are mosaic without deformation, or the diseased plant is dwarfed to three quarters or more of the normal plant height; • Grade 5: one-third to one-half of the leaves are mosaic, or a few leaves are deformed, or the main veins become black, or the diseased plant is dwarfed to two-thirds to three-quarters of the normal plant height; • Grade 7: one-half to two-thirds of the leaves are mosaic or deformed, or a few main and lateral veins become necrotic, or the diseased plant is dwarfed to one-half to two-thirds of the normal plant height; • Grade 9: the leaves of the whole plant are mosaic, severely deformed or necrotic, or the diseased plant is dwarfed to one-half or […] of the normal plant height.

[2] = test system: Pseudomonas syringae PstDC3000; experiment: Induced resistance of Arabidopsis thaliana to Pseudomonas syringae infection; type: in vivo; details: for disease index / number of bacteria in the leaves, CFU (mg) / number of bacteria in the leaves, CFU/mg: 3 days after inoculation; for decrease of the number of bacteria per milligram of leaves: compared with blank control
Experimental: 2-amino-3-phenylbutyric acid was dissolved in sterile water and then gradiently diluted with sterile water into solutions of 100 nM, 1,000 nM, and 10,000 nM, and a blank control was set up, while 0.02% Tween 20 was added as surfactant. The Pseudomonas syringae PstDC3000 was coated on the LB plate and cultured at 28° C. for 48 hours. Single colonies were picked and inoculated into a 50 mL centrifuge tube containing 2 mL of medium, cultured at 28° C. on a shaker at 250 rpm. The change of OD600 value of the bacterial solution was monitored every 1-2 hours until it reached 0.8, and the culture of the bacteria was stopped. 1 mL of the bacterial solution was transferred into a 1.5 mL sterile centrifuge tube and centrifuged at 8,000 rpm for 2 min to collect the precipitate. The supernatant was removed, and the precipitate was washed 3 times with 10 mM magnesium chloride and centrifuged, and finally the PstDC3000 was resuspended in 10 mM magnesium chloride to reach an OD600 value of […] for later use. The Arabidopsis thaliana seeds were soaked in 75% alcohol for 3 min, then washed 4 times with sterile water and planted in a Petri dish containing ½ MS medium. Twelve seeds were planted in each petri dish, and ½ MS petri dishes with seeds were vernalized at 4° C. for 3 d to break dormancy and then placed in a culture room at 22° C. with a light intensity of 100 μE m^−2s^−1 (16 h light/8 h darkness). When the seedlings grew for 2 weeks, the 2-amino-3-phenylbutyric acid solutions at different concentrations were slowly poured into the petri dish until the whole Arabidopsis thaliana seedlings were submerged, and kept for 2-3 minutes, and then the treatment solution was poured out of the petri dish. The treatment was performed once every 24 h for a total of 2 treatments. 24 hours after the second treatment, the PstDC3000 suspension (OD600=0.01) was inoculated onto the leaves of Arabidopsis thaliana by the same submerge method. After inoculation, the petri dish was closed with a medical breathable adhesive tape and placed in the culture room for further culture. After 3 days, the number of bacteria in different treatments was determined and the incidence of Arabidopsis thaliana was observed. The disease index was calculated in the same manner as that in Example 2.
Grading standard of Disease injury caused by PstDC3000 (per leave): • Grade 0: No diseased patches on the leaves; • Grade 1: The area of diseased spots accounts for 0%-10% of the whole leaf; • Grade 2: The area of diseased spots accounts for 10%-25% of the whole leaf; • Grade 3: The area of diseased spots accounts for 25%-50% of the whole leaf; • Grade 4: The area of diseased spots accounts for 50%-75% of the whole leaf; • Grade 5: The area of diseased spots accounts for 75%-100% of the whole leaf.

[3] = 0.1 nM spray, 15 days after inoculation
[4] = 1 nM spray, 15 days after inoculation
[5] = each treatment in the range 0.1-10 nM

Q: Which results are given for `CC(CCCN)C(N)C(=O)O` (stereo not drawn) [2,6-diamino-3-methylhexanoic acid]?
A: relative immunization effect (%) ([1]; 0.1 nM): 53.08%; disease index [1, 3]: 42.64 ± 1.25 b; viral protein content ([1]; 0.1 nM): 0.41 ± 0.005 b; relative immunization effect (%) ([1]; 1 nM): 63.72%; disease index [1, 4]: 32.97 ± 1.26 c; viral protein content ([1]; 1 nM): 0.23 ± 0.002 c; relative immunization effect (%) ([1]; 10 nM): 70.94%; disease index [1, 5]: lower than 50; relative immune effect [1, 5]: ≥ 50%; decrease of the disease index ([2]; 100 nM): 50.96%; disease index ([2]; 100 nM): 42.01 ± 1.36 b; number of bacteria in the leaves, CFU (mg) ([2]; 100 nM): 8.42 × 10^5 CFU (mg); decrease of the number of bacteria per milligram of leaves ([2]; 100 nM): 73.93%; decrease of the disease index ([2]; 1,000 nM): 56.15%; disease index ([2]; 1,000 nM): 37.57 ± 0.24 c; number of bacteria in the leaves, CFU (mg) ([2]; 1,000 nM): 5.12 × 10^5 CFU (mg); decrease of the number of bacteria per milligram of leaves ([2]; 1,000 nM): 84.15%; decrease of the disease index ([2]; 10,000 nM): 76.82%; number of the bacteria per mg leaves ([2]; 10,000 nM): 1.58×10^5 per mg leaves; number of bacteria in the leaves, CFU (mg) ([2]; 10,000 nM): 1.58 × 10^5 CFU (mg); decrease of the number of bacteria per milligram of leaves ([2]; 10,000 nM): 95.11%

Q: What does the source list for `CC(c1ccccc1)C(N)C(=O)O` (stereo not drawn) [2-amino-3-phenylbutyric acid]?
A: relative immunization effect (%) ([1]; 0.1 nM): 35.77%; disease index [1, 3]: 48.77 ± 0.87 b; viral protein content ([1]; 0.1 nM): 0.33 ± 0.003 b; relative immunization effect (%) ([1]; 1 nM): 60.98%; disease index [1, 4]: 29.63 ± 1.51 c; viral protein content ([1]; 1 nM): 0.14 ± 0.008 c; relative immunization effect (%) ([1]; 10 nM): 69.23%; disease index [1, 5]: lower than 50; relative immune effect [1, 5]: ≥ 35%; decrease of the disease index ([2]; 100 nM): 52.57%; disease index ([2]; 100 nM): 38.04 ± 1.04 b; number of bacteria in the leaves, CFU/mg ([2]; 100 nM): 2.40 × 10^5 CFU/mg; decrease of the number of bacteria per milligram of leaves ([2]; 100 nM): 92.05%; decrease of the disease index ([2]; 1,000 nM): 58.45%; disease index ([2]; 1,000 nM): 33.33 ± 4.17 c; number of bacteria in the leaves, CFU/mg ([2]; 1,000 nM): 2.13 × 10^5 CFU/mg; decrease of the number of bacteria per milligram of leaves ([2]; 1,000 nM): 92.94%; decrease of the disease index ([2]; 10,000 nM): 81.82%; number of the bacteria per mg leaves ([2]; 10,000 nM): 1.34×10^5 per mg leaves; number of bacteria in the leaves, CFU/mg ([2]; 10,000 nM): 1.34 × 10^5 CFU/mg; decrease of the number of bacteria per milligram of leaves ([2]; 10,000 nM): 95.56%
